Source: patent publication US10718028B2, “Fluorescent probes for abasic site detection” (CASE WESTERN RESERVE UIVERSITY, priority 2015, dated 2020)

Experiments:
[1] = target: T1, UDG (Escherichia coli, UniProt P12295); assay: SSB activity assay UDG inhibition; format: biochemical; settings: UDG 10 min pretreatment vs simultaneous UDG and Cy7MX
T1 construct: purchased New England BioLabs
Method: FIG. 8 illustrates the evaluation of UDG inhibition by Cy7MX. Time course represents incubation time of U:A DNA before APE addition with UDG alone, 10 minutes UDG pretreatment then Cy7MX, and UDG and Cy7MX without pretreatment.
Method UDG (10 min)+Cy7MX: All samples were prepared in triplicate.
Method UDG+Cy7MX: All samples were prepared in triplicate. […] Samples were incubated at 37° C. in the dark for 2 min, 10 min, 30 min, 60 min, or 180 min.
Method UDG: As in method UDG+Cy7MX except substitute DMSO (2 μL) for Cy7MX.
Likewise, the potential of Cy7MX to inhibit UDG, either through direct interaction with the enzyme or by binding to DNA and blocking the uracil substrate, was tested. To accomplish this, U:A DNA was incubated with UDG for a fixed time prior to addition of Cy7MX (FIG. 8, UDG (10 min)+Cy7MX). In this case, Cy7MX could not interfere with the activity of UDG.

[2] = system: AP sites in calf thymus AP DNA; assay: Genomic DNA time course of Cy7MX binding; settings: heat/acid treated DNA, 37° C.
Method: Calf thymus DNA was purchased from Sigma and was reconstituted overnight at 4° C. in either H2O or 500 mM MX (to eliminate basal AP sites) with gentle shaking (1.5 mL water or solution per 5 mg DNA). For samples reconstituted in MX solution, an ethanol precipitation was performed twice before heat and acid treatment (vide infra) then reconstituted in water. The DNA-water solution was aliquoted to 1.5 mL Eppendorf tubes (360 μL) and 10× Citrate buffer (1M NaCl, 100 μM monosodium phosphate, 100 μM monosodium citrate, pH 5.0) was added to a final concentration of 1×. For t=0 min samples, ice-cold 100% EtOH (1.0 mL) was added immediately and the Eppendorf tubes stored at −20° C. Other samples were placed in a 70° C. heating block for 15-90 minutes in 15-minute increments. Samples were removed from heat, precipitated in ice-cold 100% EtOH (1.0 mL), and then chilled at −20° C. for at least 20 minutes. Samples were centrifuged at 12,000×G for 10 min at 4° C. The supernatant was discarded. The process was repeated once beginning with the addition of EtOH (1.0 mL). The DNA pellet was dissolved in 700 μL H2O or TE buffer. […]
A 100 mM stock solution of Cy7MX in DMSO was diluted to 25 μM in H2O. […] Aliquots (125 μL) of the samples were added to a black, clear-bottom 96 well plate (Corning) and analyzed with 750 nm excitation and 800 nm emission. Fluorescence was adjusted to DNA concentration.

[3] = system: AP sites in calf thymus DNA; assay: MX and Cy7MX genomic DNA blocking assay; format: binding; settings: not blocked by MX
Method: FIG. 10 illustrates fluorescence response and MX blocking of Cy7MX. Calf thymus DNA treated with heat and acid for increments of 15 min to give a linear relative number of AP sites. AP DNA was then pretreated with MX (50 mM, +MX) or NaCl (50 mM, −MX) followed by incubation with Cy7MX (0.05 mM). Fluorescence measures show a linear response to Cy7MX when not blocked by MX.
Calf thymus DNA was purchased from Sigma and was reconstituted overnight at 4° C. in either H2O or 500 mM MX (to eliminate basal AP sites) with gentle shaking (1.5 mL water or solution per 5 mg DNA). For samples reconstituted in MX solution, an ethanol precipitation was performed twice before heat and acid treatment (vide infra) then reconstituted in water. The DNA-water solution was aliquoted to 1.5 mL Eppendorf tubes (360 μL) and 10× Citrate buffer (1M NaCl, 100 μM monosodium phosphate, 100 μM monosodium citrate, pH 5.0) was added to a final concentration of 1×. For t=0 min samples, ice-cold 100% EtOH (1.0 mL) was added immediately and the Eppendorf tubes stored at −20° C. […]
To 80 μL aliquots of DNA was added either 10 μL of MX (500 mM, pH 7) or vehicle control (500 mM NaCl). […] Aliquots (125 μL) of the samples were added to a black, clear-bottom 96 well plate (Corning) and analyzed with 700 nm excitation and 790 nm emission. Fluorescence was adjusted to DNA concentration.

[4] = system: DLD1 WT cells; assay: MMS treatment, isolation, and Cy7MX analysis of DLD1 DNA; format: cell-based; settings: 3 h MMS exposure, 1 h Cy7MX
Method: DLD1 shControl (WT) cells at a density of 3 million cells per dish were plated in Falcon brand 100×20 mm cell culture dishes in 10 mL medium (DMEM supplemented with 10% heat inactivated FBS, penicillin/streptomycin, and nonessential amino acids) and incubated 16 h at 37° C. and 5% CO2 to ensure adhesion. Solutions of MMS were prepared in serum free DMEM medium at concentrations of 0.05, 0.25, 1, 4, and 10 mM. Medium was removed from the cells and replaced with the MMS or a serum free medium vehicle. Three plates were prepared per treatment group. Cells were incubated at 37° C. and 5% CO2 with continuous MMS exposure for 3 h. At the time points, cells were collected and DNA isolated as described above (Treatment of DLD1 cells with FUDR).
Pure DNA pellets were suspended in 190 μL water. A solution of Cy7MX (10 μL, final=25 μM) was added to each sample, keeping the stock solution and all treated samples vigorously in the dark until the final analysis. Samples were incubated with Cy7MX for 1 h at 37° C. in the dark. After incubation, DNA was purified and analyzed as described above.
Methyl methanesulfonate (MMS) is a methylating agent used to induce AP sites in cells. An MMS dose-response in DLD1 WT cells was performed for a 3 h treatment time. […] Fluorescence was measured following ethanol precipitation purification.

T1 sequence (P12295 whole entry): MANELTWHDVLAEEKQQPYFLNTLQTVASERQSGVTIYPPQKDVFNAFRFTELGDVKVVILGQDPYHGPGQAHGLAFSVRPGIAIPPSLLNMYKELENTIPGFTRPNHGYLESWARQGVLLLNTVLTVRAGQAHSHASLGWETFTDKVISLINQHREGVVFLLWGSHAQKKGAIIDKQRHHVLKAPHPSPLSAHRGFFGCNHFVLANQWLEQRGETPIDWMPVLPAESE

CCCN1/C(=C/C=C2\CCCC(/C=C/C3=[N+](CCC)c4ccccc4C3(C)C)=C2Oc2ccc(CC(=O)NCCCON)cc2)C(C)(C)c2ccccc21 [Cy7MX, 2-((E)-2-((E)-2-(4-(2-((3-(aminooxy)propyl)amino)-2-oxoethyl)phenoxy)-3-((E)-2-(3,3-dimethyl-1-propylindolin-2-ylidene)ethylidene)cyclohex-1-en-1-yl)vinyl)-3,3-dimethyl-1-propyl-3H-indol-1-ium 2,2,2-trifluoroacetate]
UDG inhibition [1]: does not inhibit UDG activity | time to complete reaction [2]: approximately 10 min | fluorescence intensity versus DNA heat/acid treatment time [3]: linear relationship | detection of AP sites in DNA of MMS treated cells [4]: sensitive to the quantity of AP sites induced by mM concentrations of MMS
